# Assay results reported in patent US20240408054A1, “COMPOSITIONS AND METHODS FOR […] OF R(-)-MDA” (priority 2023, published 2024).
# Like-named read-outs stand apart in the source and are kept apart here.
# What was measured:
# [1] = other studies in healthy human subjects; cited from earlier work
# [2] = racemic MDMA at 125 mg (FIG. 9); cited from earlier work
# [3] = prior studies (Hysek 2012, 2014; Thompson 2007); cited from earlier work
# [4] = Challenging Experiences Questionnaire (CEQ); type: in vivo, human; conditions: 6.5 hours post dosing
# Excerpt: Seven Challenging Experiences Questionnaire (CEQ) factors (grief, fear, death, insanity, isolation, physical distress, and paranoia) provide a phenomenological profile of challenging aspects of experiences with R(−)-MDMA.
# [5] = Phase 1 clinical study: safety and tolerability; conditions: healthy volunteers, single oral dose 75-225 mg
# [6] = design: species or system human; conditions: in vivo
# [7] = Depression Anxiety Stress Scale (DASS); type: in vivo, human; conditions: for DASS Anxiety Difference with Placebo and 95% CI / DASS Depression Difference with Placebo and 95% CI / DASS Stress Difference with Placebo and 95% CI / DASS Anxiety LSMean and 95% CI / DASS Depression LSMean and 95% CI / DASS Stress LSMean and 95% CI: Day 8; for DASS Anxiety LSMean and 95% CI / DASS Depression LSMean and 95% CI / DASS Stress LSMean and 95% CI: change from baseline
# Excerpt: The Depression Anxiety Stress Scale (DASS) is a 42-item self-report instrument for measuring depression, anxiety and tension/stress.
# [8] = Phase 1 clinical study: pharmacokinetics (plasma); type: in vivo, human
# [9] = Self-Connectedness Scale / Self-Compassion Scale (SCS); type: in vivo, human; conditions: for Self-Connectedness Scale LSMean and 95% CI: change from baseline
# Excerpt: The Self-Compassion Scale (SCS) is a 12-item self-report measure that is used by adults to measure their capacity for self-compassion-the ability to hold one's feelings of suffering with a sense of warmth, connection and concern.
# [10] = Neuroendocrine effects (hormone concentrations); type: in vivo, human
# [11] = Multifaceted Empathy Test (MET); type: in vivo, human
# Excerpt: The Multifaceted Empathy Test (MET) measures cognitive empathy (CE), explicit emotional empathy (EEE) and implicit emotional empathy (IEE). Hurlemann R, et al., (2010) Oxytocin enhances amygdala-dependent, socially reinforced learning and emotional empathy in humans. J Neurosci 30:4999-5007.
# [12] = 11-Dimensions-Altered States of Consciousness (11D-ASC); type: in vivo, human
# Excerpt: The results of the 11D-ASC assessment further confirms the unexpected psychedelic-like response associated with R(−)-MDMA.
# [13] = Visual Analog Scale (VAS) subjective experience; type: in vivo, human
# Excerpt: Visual Analogue Scales (VAS) was used to measure subjective experience, including experiences such as Happy, Open, Loving, Close to Others, Sociable, and Lonely. […] Some signal increases were observable for acute increases in the VAS scores of Happy, Open, and Loving experiences, and an acute decrease associated with Lonely (FIG. 2). However, the degree of those signals was far less than previously reported signals for racemic MDMA. These effects for R(−)-MDMA were observable within the acute treatment phase and were dimished (relative to baseline) after 18 hours post-dosing. […] However, R(−)-MDMA did show a consistent pattern in the 225 mg cohort, with highest changes relative to baseline and with similar directionality as the effects reported for racemic MDMA.
# [14] = 5-Dimensions-Altered States of Consciousness (5D-ASC); type: in vivo, human
# Excerpt: This is generally unexpected given the prior results that have been reported for MDMA. One notable finding from the assessment is the ratio of Oceanic Boundlessness (OB) to Dread of Ego Dissolution (DED), which are considered a useful metric. OB is positively correlated with psychedelic-mediated antidepressant efficacy while DED is negatively correlated. […] The OB-DED ratio is consistent with the 11-Dimensional Altered States of Consciousness (11D-ASC, see below).
# [15] = Emotional Breakthrough Inventory (EBI); type: in vivo, human; conditions: 75-225 mg
# Excerpt: Self-reported breakthrough responses included: facing emotionally difficult feelings that are usually pushed aside; experiencing resolution of a personal conflict or trauma; ability to explore challenging emotions and memories; having an emotional breakthrough; achieving a sense of closure on an emotional problem; achieving emotional release followed by sense of relief.
# [16] = Spoken Intensity Rating Scale (SIRS); type: in vivo, human
# [17] = any cohort compared with the placebo group
# [18] = 75-225 mg, statistical significance at higher doses
structure (smiles),measurement,setting,value
"CNC(C)Cc1ccc2c(c1)OCO2 (racemic) [racemic MDMA, 3,4-methylenedioxymethamphetamine]","VAS Happy, Open, Loving, Close to Others, and Sociable",[1],acute and substantial increases
same,11D-ASC response profile,[2],no visual hallucinations and little to no insightfulness
same,oxytocin release,[3],5-6 x
CN[C@H](C)Cc1ccc2c(c1)OCO2 [R(−)-MDMA],CEQ changes from baseline,[4],clear dose-dependent response with statistical significance at higher doses
same,Peak body temperatures,[5],fell within the normal range
same,Treatment-related adverse events: headache,[5],16.7%
same,Treatment-related adverse events: nausea,[5],29.2%
same,serious or severe AEs,[5],no serious or severe AEs
same,study discontinuations,[5],no study discontinuations
same,tolerability,[5],well-tolerated
same,blood pressure and heart rate,[5]; limited dose dependency,Non-clinically significant increases
same,FERT mean happiness reaction time,[6],reduction in the mean happiness reaction time
same,FERT median reaction time,[6],greater reduction in the median reaction time
same,DASS anxiety,"[7]; Day 8, compared to placebo",lowered anxiety at lower doses but increased anxiety at 225 mg compared to placebo
same,DASS Anxiety Difference with Placebo and 95% CI,[7]; 75 mg oral,−1.04
same,DASS Depression Difference with Placebo and 95% CI,[7]; 75 mg oral,−0.15
same,DASS Stress Difference with Placebo and 95% CI,[7]; 75 mg oral,−0.93
same,DASS Anxiety Difference with Placebo and 95% CI,[7]; 125 mg oral,−1.07
same,DASS Depression Difference with Placebo and 95% CI,[7]; 125 mg oral,−0.26
same,DASS Stress Difference with Placebo and 95% CI,[7]; 125 mg oral,−0.91
same,DASS Anxiety Difference with Placebo and 95% CI,[7]; 175 mg oral,−1.08
same,DASS Depression Difference with Placebo and 95% CI,[7]; 175 mg oral,−0.03
same,DASS Stress Difference with Placebo and 95% CI,[7]; 175 mg oral,1.11
same,DASS Anxiety Difference with Placebo and 95% CI,[7]; 225 mg oral,0.94
same,DASS Depression Difference with Placebo and 95% CI,[7]; 225 mg oral,1.29
same,DASS Stress Difference with Placebo and 95% CI,[7]; 225 mg oral,1.68
same,DASS Anxiety LSMean and 95% CI,[7]; 75 mg oral,−1.22
same,DASS Depression LSMean and 95% CI,[7]; 75 mg oral,−1.03
same,DASS Stress LSMean and 95% CI,[7]; 75 mg oral,−2.57
same,DASS Anxiety LSMean and 95% CI,[7]; 125 mg oral,−1.24
same,DASS Depression LSMean and 95% CI,[7]; 125 mg oral,−1.14
same,DASS Stress LSMean and 95% CI,[7]; 125 mg oral,−2.54
same,DASS Anxiety LSMean and 95% CI,[7]; 175 mg oral,−1.26
same,DASS Depression LSMean and 95% CI,[7]; 175 mg oral,−0.91
same,DASS Stress LSMean and 95% CI,[7]; 175 mg oral,−0.52
same,DASS Anxiety LSMean and 95% CI,[7]; 225 mg oral,0.76
same,DASS Depression LSMean and 95% CI,[7]; 225 mg oral,0.41
same,DASS Stress LSMean and 95% CI,[7]; 225 mg oral,0.05
same,systemic exposure (Cmax/AUC) to the active metabolite R(−)-MDA,"[8]; after R(−)-MDMA dosing, at higher doses",increased with doses in a slightly less than dose-dependent manner
same,PK food effects,[8]; fasted cohorts versus one fed arm,No patterns in the data suggested any substantial PK food effects
same,AUC0-24h compared to prior reports for total MDMA following racemic-MDMA dosing,[8]; plasma,substantially higher
same,Systemic exposure (Cmax and AUC),"[8]; plasma, 75-225 mg oral",increase with increasing doses in a generally dose-dependent manner
same,"pharmacokinetics, dose dependence","[8]; plasma, 75-225 mg oral",dose-dependent pharmacokinetics
same,Self-Connectedness Scale Difference with Placebo and 95% CI,"[9]; Day 2, 75 mg oral",0.14
same,Self-Connectedness Scale Difference with Placebo and 95% CI,"[9]; Day 2, 125 mg oral",0.33
same,Self-Connectedness Scale Difference with Placebo and 95% CI,"[9]; Day 2, 175 mg oral",0.42
same,Self-Connectedness Scale Difference with Placebo and 95% CI,"[9]; Day 2, 225 mg oral",0.26
same,SCS changes from baseline,[9]; Day 2 and Day 8,clear dose-dependent response with statistical significance at Day 8
same,Self-Connectedness Scale Difference with Placebo and 95% CI,"[9]; Day 8, 75 mg oral",0.37
same,Self-Connectedness Scale Difference with Placebo and 95% CI,"[9]; Day 8, 125 mg oral",0.40
same,Self-Connectedness Scale Difference with Placebo and 95% CI,"[9]; Day 8, 175 mg oral",0.41
same,Self-Connectedness Scale Difference with Placebo and 95% CI,"[9]; Day 8, 225 mg oral",0.52
same,Self-Connectedness Scale LSMean and 95% CI,"[9]; Day 2, 75 mg oral",0.04
same,Self-Connectedness Scale LSMean and 95% CI,"[9]; Day 2, 125 mg oral",0.23
same,Self-Connectedness Scale LSMean and 95% CI,"[9]; Day 2, 175 mg oral",0.32
same,Self-Connectedness Scale LSMean and 95% CI,"[9]; Day 2, 225 mg oral",0.16
same,Self-Connectedness Scale LSMean and 95% CI,"[9]; Day 8, 75 mg oral",0.08
same,Self-Connectedness Scale LSMean and 95% CI,"[9]; Day 8, 125 mg oral",0.12
same,Self-Connectedness Scale LSMean and 95% CI,"[9]; Day 8, 175 mg oral",0.12
same,Self-Connectedness Scale LSMean and 95% CI,"[9]; Day 8, 225 mg oral",0.24
same,concentration of mature brain-derived neurotrophic factor,[10]; [17],no obvious change from baseline
same,concentration of oxytocin,[10]; [17],no obvious change from baseline
same,concentration of prolactin,[10]; compared with the placebo group,consistent increase
same,"MET scores: CE positive, EEE all and EEE negative emotions",[11]; all cohorts,showed no changes from baseline compared to placebo in all cohorts
same,"MET LSmean scores: CE all, CE negative, EEE positive, IEE all, IEE positive, IEE negative emotions",[11]; near 3.5 hours,showed changes from baseline in a dose-dependent manner
same,11D-ASC response profile,"[12]; 175 mg and 225 mg, compared with psilocybin","many similarities to that of psilocybin, with slightly less imagery and slightly more insightfulness"
same,11D-ASC subcomponents and total score,[12]; [18],dose-dependent increase in all measured subcomponents
same,VAS scores for Close to Others and Sociable,[13]; all cohorts,showed no changes from baseline compared to placebo in all cohorts
same,"VAS scores for Happy, Open, Loving, and Lonely",[13]; compared to placebo control,showed changes from baseline (prior to treatment) in a dose-dependent manner
same,ratio of Oceanic Boundlessness (OB) to Dread of Ego Dissolution (DED),[14]; 175 mg cohort,very favorable ratio
same,5D-ASC subcomponents and total score,[14]; [18],dose-dependent increase in all measured subcomponents
same,EBI observations,[15],clear dose-dependent response with statistical significance at higher doses
same,SIRS dose response,[16]; 75-225 mg oral,very strong dose response
same,time of peak SIRS relative to plasma PK Tmax,[16]; each dose,much earlier than the plasma PK Tmax at each dose
